Results: patent US20120094998A1, “Oligomer-Protein Tyrosine Kinase Inhibitor Conjugates” (Nektar Therapeutics, priority 2009, published 2012)
Converted amounts (≈) assume the structure as drawn. Like-named read-outs stand apart in the source and are kept apart here.

Legend:
Thermodynamic solubility = assay type: physicochemical; settings: aqueous buffer, thermodynamic from solid; phosphate buffered saline, pH 7.4; ambient temperature overnight
Procedure: Test compound (2.5 mg of solid; n=1) is weighed in a clear glass vial and buffer (0.5 mL) is added (phosphate buffered saline, pH 7.4). The solution is agitated at ambient temperature overnight using a vial roller system. […] Duplicate aliquots (50 μL) are sampled from the filtrate and diluted with one volume of 0.1 N hydrochloric acid and methanol (1:1 v/v) before analysis by HPLC-UV. […] The concentration of test compound in the filtrate is quantified relative to the concentration standard.
Analysis is performed using a gradient HPLC-UV system with a total cycle time of six minutes.

[1] = Caco-2 permeability (bi-directional; pH 7.4/pH 7.4); assay type: in vitro ADME; settings: human; for Papp A→B at 120 min, 10 μM: Caco-2, pH 7.4, read-out: Permeability (cm^2/s × 10^6)
Procedure: Caco-2 cells are used as an in vitro model of the human intestinal epithelium and permit assessment of the intestinal permeability of potential drugs. Test compound is added to either the apical or basolateral side of a confluent monolayer of Caco-2 cells and permeability is measured by monitoring the appearance of the test compound on the opposite side of the membrane using LC-MS/MS. Apparent permeability (Papp) coefficients, efflux ratio for the test compound and recovery values were determined.
To measure the permeability of test compound in the apical to basolateral (A-B) and basolateral to apical (B-A) direction across Caco-2 cells.
Caco-2 cells obtained from the ATCC are used between passage numbers 40-60. Cells are seeded on to Millipore Multiscreen Caco-2 plates at 1×10^5 cells/cm^2. They are cultured for 20 days in DMEM and media is changed every two or three days. On day 20 the permeability study is performed.
On day 20, the monolayers are prepared by rinsing both basolateral and apical surfaces twice with HBSS at 37° C. Cells are then incubated with HBSS in both apical and basolateral compartments for 40 min to stabilize physiological parameters. HBSS is then removed from the apical compartment and replaced with test compound dosing solutions. […] The fluorescent integrity marker lucifer yellow is also included in the dosing solution. Analytical standards are made from dosing solutions. The apical compartment inserts are then placed into ‘companion’ plates containing fresh HBSS. For basolateral to apical (B-A) permeability determination the experiment is initiated by replacing buffer in the inserts then placing them in companion plates containing dosing solutions. At 120 minutes the companion plate is removed and apical and basolateral samples diluted for analysis by LC-MS/MS. Test compound permeability was assessed in duplicate. On each plate, compounds of known permeability characteristics were run as controls.
Test and control compounds were quantified by LC-MS/MS cassette analysis using a 5-point calibration with appropriate dilution of the samples. Cyprotex generic analytical conditions were used. The starting concentration (C0) and experimental recovery were calculated from both apical and basolateral compartment concentrations.
The integrity of the monolayers throughout the experiment was checked by monitoring lucifer yellow permeation using fluorimetric analysis. Lucifer yellow permeation is low if monolayers have not been damaged. […] If lucifer yellow Papp values are above QC limits in both replicate wells for a test compound, the compound was re-tested.
Data Analysis: The permeability coefficient for each compound (Papp) is calculated from the following equation: […]
wherein dQ/dt is the rate of permeation of the drug across the cells, C0 is the donor compartment concentration at time zero and A is the area of the cell monolayer. C0 is obtained from analysis of donor and receiver compartments at the end of the incubation period. It is assumed that all of the test compound measured after 120 minutes incubation was initially present in the donor compartment at 0 minutes. An efflux ratio (ER) is derived as follows:
Talinolol (a known P-gp substrate) is also included as a control compound to assess whether functional P-gp is present in the Caco-2 cell monolayer.

ABL [2] = biological target: T1, ABL (Homo sapiens, UniProt P00519); assay: Off-chip mobility-shift kinase assay (Caliper LABCHIP), ABL; settings: for ABL AVG % Activity at 1.0E−09: concentration 1.0E−09; for ABL AVG % Activity at 1.0E−10: concentration 1.0E−10; for ABL AVG % Activity at 3.0E−09: concentration 3.0E−09; for ABL AVG % Activity at 3.0E−10: concentration 3.0E−10
PDGFRβ = PDGFRβ (Homo sapiens, UniProt P09619); assay: Off-chip mobility-shift kinase assay (Caliper LABCHIP), PDGFR
cKIT = cKIT (Homo sapiens, UniProt P10721); assay: Off-chip mobility-shift kinase assay (Caliper LABCHIP), C-kit
ABL [3] = biological target: T1, ABL
[4] = imatinib-corresponding compounds
[5] = dasatinib-corresponding compounds

T1 sequence (P00519 whole entry): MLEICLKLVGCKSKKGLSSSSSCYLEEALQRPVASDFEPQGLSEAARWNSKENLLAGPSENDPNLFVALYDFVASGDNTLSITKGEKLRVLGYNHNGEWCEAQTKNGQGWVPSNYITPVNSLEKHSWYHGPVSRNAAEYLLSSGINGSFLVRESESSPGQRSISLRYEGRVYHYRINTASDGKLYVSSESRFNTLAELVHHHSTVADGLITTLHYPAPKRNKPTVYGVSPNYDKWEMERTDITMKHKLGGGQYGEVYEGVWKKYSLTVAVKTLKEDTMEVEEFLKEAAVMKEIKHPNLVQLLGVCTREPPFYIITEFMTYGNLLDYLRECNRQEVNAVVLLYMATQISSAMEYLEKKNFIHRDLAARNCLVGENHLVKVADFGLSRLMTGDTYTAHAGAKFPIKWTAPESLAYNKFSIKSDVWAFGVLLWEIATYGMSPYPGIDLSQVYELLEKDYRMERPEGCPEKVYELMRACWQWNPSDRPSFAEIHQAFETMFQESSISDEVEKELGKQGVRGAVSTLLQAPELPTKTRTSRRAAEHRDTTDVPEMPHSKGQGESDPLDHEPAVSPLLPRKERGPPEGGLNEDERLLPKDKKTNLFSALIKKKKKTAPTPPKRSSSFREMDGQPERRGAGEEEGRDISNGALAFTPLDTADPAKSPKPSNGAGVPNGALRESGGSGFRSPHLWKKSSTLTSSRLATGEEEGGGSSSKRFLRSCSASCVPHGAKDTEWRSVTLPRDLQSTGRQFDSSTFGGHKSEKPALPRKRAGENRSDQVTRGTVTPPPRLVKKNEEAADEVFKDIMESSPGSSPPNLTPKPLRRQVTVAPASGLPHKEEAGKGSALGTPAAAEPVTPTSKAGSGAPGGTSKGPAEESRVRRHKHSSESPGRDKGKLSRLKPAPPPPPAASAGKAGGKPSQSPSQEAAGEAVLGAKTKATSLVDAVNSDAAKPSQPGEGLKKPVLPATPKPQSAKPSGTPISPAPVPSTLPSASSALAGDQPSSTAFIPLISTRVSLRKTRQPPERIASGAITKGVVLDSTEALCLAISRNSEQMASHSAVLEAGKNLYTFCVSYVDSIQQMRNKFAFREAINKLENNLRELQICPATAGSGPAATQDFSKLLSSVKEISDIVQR
PDGFRβ, sequence (P09619 33-1106): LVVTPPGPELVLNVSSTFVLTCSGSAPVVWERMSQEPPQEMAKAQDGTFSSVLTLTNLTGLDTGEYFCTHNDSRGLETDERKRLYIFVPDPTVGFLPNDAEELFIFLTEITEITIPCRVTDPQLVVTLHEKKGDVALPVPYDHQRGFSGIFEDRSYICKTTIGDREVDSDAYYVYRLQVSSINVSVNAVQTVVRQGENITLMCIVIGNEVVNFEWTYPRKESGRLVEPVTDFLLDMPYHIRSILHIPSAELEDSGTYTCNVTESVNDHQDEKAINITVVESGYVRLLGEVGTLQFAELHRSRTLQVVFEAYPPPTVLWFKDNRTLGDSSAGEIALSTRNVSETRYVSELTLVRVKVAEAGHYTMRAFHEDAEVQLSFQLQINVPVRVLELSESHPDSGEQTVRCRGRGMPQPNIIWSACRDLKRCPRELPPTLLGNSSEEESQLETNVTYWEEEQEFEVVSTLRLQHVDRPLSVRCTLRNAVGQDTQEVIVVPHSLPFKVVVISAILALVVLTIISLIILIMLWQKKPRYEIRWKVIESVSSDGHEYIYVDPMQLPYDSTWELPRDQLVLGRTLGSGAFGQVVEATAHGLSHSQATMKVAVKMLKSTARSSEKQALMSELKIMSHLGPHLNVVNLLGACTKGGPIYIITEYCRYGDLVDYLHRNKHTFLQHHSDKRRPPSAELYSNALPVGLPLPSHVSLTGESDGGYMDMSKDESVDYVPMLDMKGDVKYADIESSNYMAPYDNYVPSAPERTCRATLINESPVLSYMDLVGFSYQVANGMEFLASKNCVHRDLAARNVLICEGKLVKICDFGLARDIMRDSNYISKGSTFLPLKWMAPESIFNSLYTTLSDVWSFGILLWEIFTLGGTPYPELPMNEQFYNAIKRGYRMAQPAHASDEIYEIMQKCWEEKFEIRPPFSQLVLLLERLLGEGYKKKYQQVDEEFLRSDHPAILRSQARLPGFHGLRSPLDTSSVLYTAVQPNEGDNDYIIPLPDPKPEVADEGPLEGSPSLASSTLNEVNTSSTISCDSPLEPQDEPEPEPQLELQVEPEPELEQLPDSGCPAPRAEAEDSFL
cKIT, sequence (P10721 26-976): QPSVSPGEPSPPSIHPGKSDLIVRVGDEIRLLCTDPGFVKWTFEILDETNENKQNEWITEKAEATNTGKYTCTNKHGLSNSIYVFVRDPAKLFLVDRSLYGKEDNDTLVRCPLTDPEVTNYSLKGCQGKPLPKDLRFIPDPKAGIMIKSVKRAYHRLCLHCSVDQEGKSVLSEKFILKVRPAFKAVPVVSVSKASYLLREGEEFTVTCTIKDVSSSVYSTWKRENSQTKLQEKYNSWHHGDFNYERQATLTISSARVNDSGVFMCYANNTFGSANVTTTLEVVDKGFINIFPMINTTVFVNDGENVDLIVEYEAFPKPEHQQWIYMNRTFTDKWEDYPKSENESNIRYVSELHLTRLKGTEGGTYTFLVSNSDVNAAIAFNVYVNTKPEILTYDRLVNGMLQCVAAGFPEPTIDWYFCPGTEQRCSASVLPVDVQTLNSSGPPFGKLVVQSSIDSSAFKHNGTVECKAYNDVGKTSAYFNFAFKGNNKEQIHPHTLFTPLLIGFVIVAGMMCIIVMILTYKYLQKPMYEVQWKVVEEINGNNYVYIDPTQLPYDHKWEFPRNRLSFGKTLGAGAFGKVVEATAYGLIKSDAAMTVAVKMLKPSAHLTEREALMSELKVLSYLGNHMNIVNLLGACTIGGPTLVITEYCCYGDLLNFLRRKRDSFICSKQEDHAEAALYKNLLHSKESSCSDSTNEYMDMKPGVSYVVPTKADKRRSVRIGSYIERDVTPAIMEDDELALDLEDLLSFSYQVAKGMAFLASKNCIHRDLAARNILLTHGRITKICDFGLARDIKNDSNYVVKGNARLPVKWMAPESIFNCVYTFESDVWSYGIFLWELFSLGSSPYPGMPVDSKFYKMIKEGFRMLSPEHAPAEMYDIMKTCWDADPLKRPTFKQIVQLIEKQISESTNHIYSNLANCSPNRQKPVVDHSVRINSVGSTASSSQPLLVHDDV

COCCOCCOCCOCCOCCOCCOCCNCc1ccc(C(=O)Nc2ccc(C)c(Nc3nccc(-c4cccnc4)n3)c2)cc1
solubility (Thermodynamic solubility): 3600 µg/mL (≈ 4.91 mM) | Papp A→B at 120 min, 10 μM [1]: 0.04 ± 0.01 ×10⁻⁶ cm/s | efflux ratio at 120 min, 10 μM ([1]; Caco-2, ratio of B-A and A-B permeabilities, 10 μM, 120 minutes): 391 | IC50 (ABL [2]): ≥ 3000 nM | ABL AVG % Activity at 1.0E−06 (ABL [2]; concentration 1.0E−06, imatinib-corresponding compounds): 73% | ABL AVG % Activity at 1.0E−07 (ABL [2]; concentration 1.0E−07, imatinib-corresponding compounds): 90% | ABL AVG % Activity at 1.0E−08 (ABL [2]; concentration 1.0E−08, imatinib-corresponding compounds): 94% | ABL AVG % Activity at 1.0E−09 (ABL [2]; [4]): 97% | ABL AVG % Activity at 1.0E−10 (ABL [2]; [4]): 97% | ABL AVG % Activity at 3.0E−06 (ABL [2]; concentration 3.0E−06, imatinib-corresponding compounds): 59% | ABL AVG % Activity at 3.0E−07 (ABL [2]; concentration 3.0E−07, imatinib-corresponding compounds): 82% | ABL AVG % Activity at 3.0E−08 (ABL [2]; concentration 3.0E−08, imatinib-corresponding compounds): 94% | ABL AVG % Activity at 3.0E−09 (ABL [2]; [4]): 96% | ABL AVG % Activity at 3.0E−10 (ABL [2]; [4]): 97% | IC50 (PDGFRβ): 230 nM | PDGFR AVG % Activity at 1.0E−06 (PDGFRβ; concentration 1.0E−06): 13% | PDGFR AVG % Activity at 1.0E−07 (PDGFRβ; concentration 1.0E−07): 67% | PDGFR AVG % Activity at 1.0E−08 (PDGFRβ; concentration 1.0E−08): 96% | PDGFR AVG % Activity at 1.0E−09 (PDGFRβ; concentration 1.0E−09): 93% | PDGFR AVG % Activity at 1.0E−10 (PDGFRβ; concentration 1.0E−10): 97% | PDGFR AVG % Activity at 3.0E−06 (PDGFRβ; concentration 3.0E−06): 0% | PDGFR AVG % Activity at 3.0E−07 (PDGFRβ; concentration 3.0E−07): 39% | PDGFR AVG % Activity at 3.0E−08 (PDGFRβ; concentration 3.0E−08): 100% | PDGFR AVG % Activity at 3.0E−09 (PDGFRβ; concentration 3.0E−09): 99% | PDGFR AVG % Activity at 3.0E−10 (PDGFRβ; concentration 3.0E−10): 93% | IC50 (cKIT): 1000 nM | C-kit AVG % Activity at 1.0E−05 (cKIT; concentration 1.0E−05): 6% | C-kit AVG % Activity at 1.0E−06 (cKIT; concentration 1.0E−06): 50% | C-kit AVG % Activity at 1.0E−07 (cKIT; concentration 1.0E−07): 88% | C-kit AVG % Activity at 1.0E−08 (cKIT; concentration 1.0E−08): 100% | C-kit AVG % Activity at 3.0E−05 (cKIT; concentration 3.0E−05): 1% | C-kit AVG % Activity at 3.0E−06 (cKIT; concentration 3.0E−06): 23% | C-kit AVG % Activity at 3.0E−07 (cKIT; concentration 3.0E−07): 76% | C-kit AVG % Activity at 3.0E−08 (cKIT; concentration 3.0E−08): 95% | C-kit AVG % Activity at 3.0E−09 (cKIT; concentration 3.0E−09): 99%

COCCOCCOCCOCC(=O)OCCN1CCN(c2cc(Nc3ncc(C(=O)Nc4c(C)cccc4Cl)s3)nc(C)n2)CC1 [mPEG3-COO-Dasatinib]
IC50 (ABL [2]): 0.29 nM | ABL AVG % Activity at 1.0E−09 (ABL [3]): 2% | ABL AVG % Activity at 1.0E−10 (ABL [3]): 80% | ABL AVG % Activity at 1.0E−11 (ABL [3]): 98% | ABL AVG % Activity at 3.0E−09 (ABL [3]): −1% | ABL AVG % Activity at 3.0E−10 (ABL [3]): 44% | ABL AVG % Activity at 3.0E−11 (ABL [3]): 92%

COCCOCCOCCOCC(=O)NC(CC(C)C)C(=O)OCCN1CCN(c2cc(Nc3ncc(C(=O)Nc4c(C)cccc4Cl)s3)nc(C)n2)CC1 (centres unmarked) [mPEG3-Leu-Dasatinib]
IC50 (ABL [2]): 0.43 nM | ABL AVG % Activity at 1.0E−09 (ABL [2]; [5]): 14% | ABL AVG % Activity at 1.0E−10 (ABL [2]; [5]): 85% | ABL AVG % Activity at 1.0E−11 (ABL [2]; concentration 1.0E−11, dasatinib-corresponding compounds): 99% | ABL AVG % Activity at 3.0E−09 (ABL [2]; [5]): 1% | ABL AVG % Activity at 3.0E−10 (ABL [2]; [5]): 62% | ABL AVG % Activity at 3.0E−11 (ABL [2]; concentration 3.0E−11, dasatinib-corresponding compounds): 97%

COCCOCCOCCNCc1ccc(C(=O)Nc2ccc(C)c(Nc3nccc(-c4cccnc4)n3)c2)cc1 [mPEG3-N-Imatinib]
solubility (Thermodynamic solubility): 3300 µg/mL (≈ 5.93 mM) | Papp A→B at 120 min, 10 μM [1]: 0.6 ± 0.07 ×10⁻⁶ cm/s

COCCOCCOCCN1CCN(Cc2ccc(C(=O)Nc3ccc(C)c(Nc4nccc(-c5cccnc5)n4)c3)cc2)CC1 [mPEG3-N′-Imatinib]
solubility (Thermodynamic solubility): 500 µg/mL (≈ 0.799 mM) | Papp A→B at 120 min, 10 μM [1]: 4 ± 0.8 ×10⁻⁶ cm/s
